# Test results taken from patent US8859546B2, “Picolinamide inhibitors of kinases” (AbbVie Inc., priority 2011, dated 2014).
# Biological target: T1, ALK (Homo sapiens, UniProt Q9UM73)
# T1 construct: purchased Millipore
# Assay: ALK kinase assay (HTRF), apparent Ki
# Assay type: biochemical
# Settings: apparent Ki from IC50 by Cheng-Prusoff; ALK (Millipore), 50 μM ATP; read-out: HTRF_ALK Human-Ki
# Procedure: The following procedure is used to determine ALK Activity.
# ALK kinase assays were conducted with the indicated final concentrations unless otherwise specified. In 384 well black plates (Axygen), 8 μl of compound (2% DMSO) was incubated with 8 μl Lck-peptide substrate (0.5 μM, biotin-Ahx-GAEEEIYAAFFA-COOH) and 8 μl of a mixture of ALK (3 nM, Millipore) and ATP (50 μM) in reaction buffer (50 mM Hepes, pH 7.4; 10 mM MgCl2; 2 mM MnCl2; 0.1 mM sodium orthovanadate; 0.01% BSA and 1 mM DTT (added fresh before assay) for 1 h at room temperature. Reactions were then quenched by the addition of 30 μl quench solution (streptavidin-allophycocyanin and Europium-cryptate PT66 monoclonal antibody in 40 mM Hepes, pH 7.4; 480 mM KF; 66 mM EDTA; 0.01% Tween-20; and 0.1% BSA) at room temperature. Plates were read 1 h after quenching on an Envision Multilaber Reader and IC50 values were calculated using a sigmoidal fit of the concentration/inhibition response curves. These values were converted to apparent Ki values using the Cheng-Prusoff relationship.
# Alternatively, 4 nM ALK (Millipore) and 50 μM ATP were pre-incubated for 30 min at room temperate in 384 well plates (Corning 3676) in 2.5× reaction buffer (125 nM SEB from Cisbio Bioassays, 12.5 mM MgCl2, 5 mM MnCl2, and 2.5 mM DTT). Reactions were initiated by the addition of 4 μl ALK-ATP mixture to 2 μl compounds (2% DMSO) and 4 μl TK-substrate biotin (Cisbio Bioassays). After incubation for 1 h at room temperature, reactions were quenched in 10 μl stop buffer (Cisbio detection buffer containing Streptavididn-XL665 and Eu-Cryptate PT66 monoclonal antibody). Plates were read 1 h after quenching on an Envision Multilaber Reader and IC50 values were calculated using a sigmoidal fit of the concentration/inhibition response curves. These values were converted to apparent Ki values using the Cheng-Prusoff relationship. Results are shown in Table 1 A correlates to an Ki=<100 nM, B correlates to an Ki between 100 nM and 1 μM, C correlates to an Ki=>1 μM.
# T1 sequence (Q9UM73 19-1620): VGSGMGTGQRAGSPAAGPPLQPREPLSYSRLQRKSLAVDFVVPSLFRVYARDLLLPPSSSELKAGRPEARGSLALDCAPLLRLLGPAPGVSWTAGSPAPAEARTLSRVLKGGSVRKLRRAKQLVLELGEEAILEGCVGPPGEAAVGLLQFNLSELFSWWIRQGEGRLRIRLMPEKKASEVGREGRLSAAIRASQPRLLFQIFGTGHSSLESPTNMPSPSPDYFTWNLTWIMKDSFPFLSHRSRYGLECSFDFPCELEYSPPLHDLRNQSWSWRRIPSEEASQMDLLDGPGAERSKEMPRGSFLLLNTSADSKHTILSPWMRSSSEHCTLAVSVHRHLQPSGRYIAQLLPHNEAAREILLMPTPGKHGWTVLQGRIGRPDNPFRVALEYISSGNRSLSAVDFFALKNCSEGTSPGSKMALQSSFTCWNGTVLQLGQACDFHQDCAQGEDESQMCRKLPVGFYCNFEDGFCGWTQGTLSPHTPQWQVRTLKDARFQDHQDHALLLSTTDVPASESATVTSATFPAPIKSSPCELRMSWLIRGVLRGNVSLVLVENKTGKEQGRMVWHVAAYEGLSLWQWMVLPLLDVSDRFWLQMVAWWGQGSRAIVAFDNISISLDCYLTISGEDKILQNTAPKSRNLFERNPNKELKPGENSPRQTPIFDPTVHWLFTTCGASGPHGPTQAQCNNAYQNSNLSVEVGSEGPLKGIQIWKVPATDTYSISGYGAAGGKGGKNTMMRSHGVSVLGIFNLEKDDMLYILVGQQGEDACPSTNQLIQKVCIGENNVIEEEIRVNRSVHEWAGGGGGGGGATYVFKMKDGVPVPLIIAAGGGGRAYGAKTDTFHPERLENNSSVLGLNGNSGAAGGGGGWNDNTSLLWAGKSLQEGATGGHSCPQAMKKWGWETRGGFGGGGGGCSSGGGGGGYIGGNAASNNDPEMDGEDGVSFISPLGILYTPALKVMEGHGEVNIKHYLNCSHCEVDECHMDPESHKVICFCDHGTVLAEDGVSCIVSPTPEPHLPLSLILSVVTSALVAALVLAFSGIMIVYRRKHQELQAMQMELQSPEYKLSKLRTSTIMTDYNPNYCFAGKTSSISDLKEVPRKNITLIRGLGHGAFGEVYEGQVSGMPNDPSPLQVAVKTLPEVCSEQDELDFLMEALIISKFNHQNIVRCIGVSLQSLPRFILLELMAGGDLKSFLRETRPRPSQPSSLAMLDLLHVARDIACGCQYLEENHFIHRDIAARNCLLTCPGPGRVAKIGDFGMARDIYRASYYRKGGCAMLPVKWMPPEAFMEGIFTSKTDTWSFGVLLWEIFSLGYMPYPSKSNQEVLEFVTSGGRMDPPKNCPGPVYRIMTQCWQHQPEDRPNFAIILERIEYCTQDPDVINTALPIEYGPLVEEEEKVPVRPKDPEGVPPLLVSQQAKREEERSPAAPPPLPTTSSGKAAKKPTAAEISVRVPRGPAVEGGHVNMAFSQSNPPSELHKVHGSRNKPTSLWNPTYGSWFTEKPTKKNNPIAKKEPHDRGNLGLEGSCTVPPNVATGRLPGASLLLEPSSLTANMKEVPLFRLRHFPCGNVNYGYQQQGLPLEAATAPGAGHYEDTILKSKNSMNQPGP
row,Ki [nM],Structure (SMILES)
1,> 1000,"Cc1cc(Nc2cc(Cc3ccccc3)cnc2C(N)=O)ccc1N1CCN(C)CC1 [Example 8, 5-benzyl-3-{[3-methyl-4-(4-methylpiperazin-1-yl)phenyl]amino}pyridine-2-carboxamide]"
2,100 to 1000,"COc1cc(N2CCN(C)CC2)ccc1Nc1cc(Cc2c(F)cccc2Cl)cnc1C(N)=O [Example 46, 5-(2-chloro-6-fluorobenzyl)-3-{[2-methoxy-4-(4-methylpiperazin-1-yl)phenyl]amino}pyridine-2-carboxamide]"
3,100 to 1000,"CN1CCN(c2ccc(Nc3cc(Nc4ccccc4)cnc3C(N)=O)cc2)CC1 [Example 70, 5-anilino-3-{[4-(4-methylpiperazin-1-yl)phenyl]amino}pyridine-2-carboxamide]"
4,> 1000,"CN1CCN(c2ccc(Nc3cc(Cc4ccc5ccccc5c4)cnc3C(N)=O)cc2)CC1 [Example 17, 3-{[4-(4-methylpiperazin-1-yl)phenyl]amino}-5-(2-naphthylmethyl)pyridine-2-carboxamide]"
5,> 1000,"CN1CCN(c2ccc(Nc3cc(Cc4ccc(Cl)cc4)cnc3C(N)=O)cc2)CC1 [Example 25, 5-(4-chlorobenzyl)-3-{[4-(4-methylpiperazin-1-yl)phenyl]amino}pyridine-2-carboxamide]"
6,100 to 1000,"CN1CCN(c2ccc(Nc3cc(-c4cccc(NS(=O)(=O)C5CC5)c4)cnc3C(N)=O)cc2)CC1 [Example 66, 5-{3-[(cyclopropylsulfonyl)amino]phenyl}-3-{[4-(4-methylpiperazin-1-yl)phenyl]amino}pyridine-2-carboxamide]"
7,< 100,"NC(=O)c1ncc(Cc2c(Cl)cccc2Cl)cc1Nc1ccc(N2CCNCC2)cc1 [Example 39, 5-(2,6-dichlorobenzyl)-3-{[4-(piperazin-1-yl)phenyl]amino}pyridine-2-carboxamide]"
8,100 to 1000,"COc1cc(N2CCN(CCN3CCOCC3)CC2)ccc1Nc1cc(Cc2c(F)cccc2Cl)cnc1C(N)=O [Example 43, 5-(2-chloro-6-fluorobenzyl)-3-[(2-methoxy-4-{4-[2-(morpholin-4-yl)ethyl]piperazin-1-yl}phenyl)amino]pyridine-2-carboxamide]"
9,< 100,"COc1cc(N2CCN(C)CC2)ccc1Nc1cc(Cc2c(Cl)cccc2Cl)cnc1C(N)=O [Example 38, 5-(2,6-dichlorobenzyl)-3-{[2-methoxy-4-(4-methylpiperazin-1-yl)phenyl]amino}pyridine-2-carboxamide]"
10,> 1000,"CN1CCN(c2ccc(Nc3cc(-c4cn[nH]c4)cnc3C(N)=O)cc2)CC1 [Example 63, 3-{[4-(4-methylpiperazin-1-yl)phenyl]amino}-5-(1H-pyrazol-4-yl)pyridine-2-carboxamide]"
11,< 100,"CN1CCN(c2ccc(Nc3cc(Cc4cc(F)ccc4F)cnc3C(N)=O)cc2)CC1 [Example 21, 5-(2,5-difluorobenzyl)-3-{[4-(4-methylpiperazin-1-yl)phenyl]amino}pyridine-2-carboxamide]"
12,100 to 1000,"CN1CCN(c2ccc(Nc3cc(Cc4ccccc4Cl)cnc3C(N)=O)cc2)CC1 [Example 23, 5-(2-chlorobenzyl)-3-{[4-(4-methylpiperazin-1-yl)phenyl]amino}pyridine-2-carboxamide]"
13,100 to 1000,"COc1cc(N2CCN(CC(C)(C)O)CC2)ccc1Nc1cc(Cc2c(F)cccc2Cl)cnc1C(N)=O [Example 45, 5-(2-chloro-6-fluorobenzyl)-3-({4-[4-(2-hydroxy-2-methylpropyl)piperazin-1-yl]-2-methoxyphenyl}amino)pyridine-2-carboxamide]"
14,100 to 1000,"CN1CCN(c2ccc(Nc3cc(Cc4ccc(F)cc4F)cnc3C(N)=O)cc2)CC1 [Example 20, 5-(2,4-difluorobenzyl)-3-{[4-(4-methylpiperazin-1-yl)phenyl]amino}pyridine-2-carboxamide]"
15,> 1000,"CN1CCN(c2ccc(Nc3cc(-c4cccc(C#N)c4)cnc3C(N)=O)cc2)CC1 [Example 59, 5-(3-cyanophenyl)-3-{[4-(4-methylpiperazin-1-yl)phenyl]amino}pyridine-2-carboxamide]"
16,> 1000,"CN1CCN(c2ccc(Nc3cc(-c4cccc(Cl)c4)cnc3C(N)=O)cc2)CC1 [Example 52, 5-(3-chlorophenyl)-3-{[4-(4-methylpiperazin-1-yl)phenyl]amino}pyridine-2-carboxamide]"

row,Ki [nM],Structure (SMILES)
1,100 to 1000,"CN1CCN(c2ccc(Nc3cc(-c4cccc(NS(=O)(=O)CC(F)(F)F)c4)cnc3C(N)=O)cc2)CC1 [Example 65, 3-{[4-(4-methylpiperazin-1-yl)phenyl]amino}-5-(3-{[(2,2,2-trifluoroethyl)sulfonyl]amino}phenyl)pyridine-2-carboxamide]"
2,100 to 1000,"CN1CCN(c2ccc(Nc3cc(Cc4ccccc4-c4ccccc4)cnc3C(N)=O)cc2)CC1 [Example 32, 5-(biphenyl-2-ylmethyl)-3-{[4-(4-methylpiperazin-1-yl)phenyl]amino}pyridine-2-carboxamide]"
3,< 100,"CN1CCN(c2ccc(Nc3cc(-c4cccc(NS(=O)(=O)c5cccs5)c4)cnc3C(N)=O)cc2)CC1 [Example 68, 3-{[4-(4-methylpiperazin-1-yl)phenyl]amino}-5-{3-[(2-thienylsulfonyl)amino]phenyl}pyridine-2-carboxamide]"
4,< 100,"CN1CCN(c2ccc(Nc3cc(Cc4cccc(F)c4)cnc3C(N)=O)cc2)CC1 [Example 14, 5-(3-fluorobenzyl)-3-{[4-(4-methylpiperazin-1-yl)phenyl]amino}pyridine-2-carboxamide]"
5,100 to 1000,"CN1CCN(c2ccc(Nc3cc(CC4CCCCC4)cnc3C(N)=O)cc2)CC1 [Example 5, 5-(cyclohexylmethyl)-3-{[4-(4-methylpiperazin-1-yl)phenyl]amino}pyridine-2-carboxamide]"
6,< 100,"CCN1CCN(c2ccc(Nc3cc(Cc4c(F)cccc4Cl)cnc3C(N)=O)c(OC)c2)CC1 [Example 47, 5-(2-chloro-6-fluorobenzyl)-3-{[4-(4-ethylpiperazin-1-yl)-2-methoxyphenyl]amino}pyridine-2-carboxamide]"
7,< 100,"CN1CCN(c2ccc(Nc3cc(Cc4cc(F)cc(F)c4)cnc3C(N)=O)cc2)CC1 [Example 18, 5-(3,5-difluorobenzyl)-3-{[4-(4-methylpiperazin-1-yl)phenyl]amino}pyridine-2-carboxamide]"
8,100 to 1000,"COc1ccc(Cc2cnc(C(N)=O)c(Nc3ccc(N4CCN(C)CC4)cc3)c2)cc1 [Example 16, 5-(4-methoxybenzyl)-3-{[4-(4-methylpiperazin-1-yl)phenyl]amino}pyridine-2-carboxamide]"
9,100 to 1000,"CN1CCN(c2ccc(Nc3cc(-c4ccccc4F)cnc3C(N)=O)cc2)CC1 [Example 50, 5-(2-fluorophenyl)-3-{[4-(4-methylpiperazin-1-yl)phenyl]amino}pyridine-2-carboxamide]"
10,< 100,"COc1cc(N2CCNCC2)ccc1Nc1cc(Cc2c(F)cccc2Cl)cnc1C(N)=O [Example 42, 5-(2-chloro-6-fluorobenzyl)-3-{[2-methoxy-4-(piperazin-1-yl)phenyl]amino}pyridine-2-carboxamide]"
11,> 1000,"CN1CCN(c2ccc(Nc3cc(-c4cccnc4)cnc3C(N)=O)cc2)CC1 [Example 60, 5-{[4-(4-methylpiperazin-1-yl)phenyl]amino}-3,3′-bipyridine-6-carboxamide]"
12,100 to 1000,"Cc1ccc(Cc2cnc(C(N)=O)c(Nc3ccc(N4CCN(C)CC4)cc3)c2)cc1 [Example 29, 5-(4-methylbenzyl)-3-{[4-(4-methylpiperazin-1-yl)phenyl]amino}pyridine-2-carboxamide]"
13,100 to 1000,"Cc1oncc1S(=O)(=O)Nc1cccc(-c2cnc(C(N)=O)c(Nc3ccc(N4CCN(C)CC4)cc3)c2)c1 [Example 67, 5-(3-{[(5-methyl-1,2-oxazol-4-yl)sulfonyl]amino}phenyl)-3-{[4-(4-methylpiperazin-1-yl)phenyl]amino}pyridine-2-carboxamide]"
14,100 to 1000,"CN1CCN(c2ccc(Nc3cc(-c4ccccc4)cnc3C(N)=O)cc2)CC1 [Example 6, 3-{[4-(4-methylpiperazin-1-yl)phenyl]amino}-5-phenylpyridine-2-carboxamide]"
15,100 to 1000,"COc1ccccc1Cc1cnc(C(N)=O)c(Nc2ccc(N3CCN(C)CC3)cc2)c1 [Example 28, 5-(2-methoxybenzyl)-3-{[4-(4-methylpiperazin-1-yl)phenyl]amino}pyridine-2-carboxamide]"
16,100 to 1000,"CN1CCN(c2ccc(Nc3cc(Nc4ccccc4S(=O)(=O)N(C)C)cnc3C(N)=O)cc2)CC1 [Example 71, 5-{[2-(dimethylsulfamoyl)phenyl]amino}-3-{[4-(4-methylpiperazin-1-yl)phenyl]amino}pyridine-2-carboxamide]"
